The source made the active and inactive calls.

The test system of series [1] is Escherichia coli. Briefly: Antimicrobial activity against Escherichia coli ATCC 25922 assessed as inhibition of bacterial growth incubated for 18 hrs by CLSI based method. It is filed as functional.
The subject of a further series is Staphylococcus aureus. Kind of series: Antimicrobial activity against Staphylococcus aureus ATCC 29213 assessed as inhibition of bacterial growth incubated for 18 hrs by CLSI based method. It is filed as functional.
The subject of another series is Erythrocyte. Briefly: Hemolytic activity in human red blood cells assessed as induction of hemoglobin release incubated for 4 hrs by microplate reader based assay. The format is cell-based.
The subject of series [2] is Cell membrane. Briefly: Induction of outer membrane permeability in Escherichia coli assessed as periplasmic-beta-lactamase release at 5 uM using CENTA. It is filed as subcellular.
Series [3] concerns Cell membrane. Briefly: Induction of inner membrane permeability in Escherichia coli assessed as cytoplasmic beta-galactosidase release at 5 uM using ONPG.
Series [4] has as its system Cell membrane. Briefly: Induction of inner membrane permeability in Escherichia coli at 5 uM incubated for 1 hr by SYTOX Green-staining based flow cytometry analysis. The format is subcellular. For orientation: In flow cytometry, cells or beads pass a laser one at a time.
Series [5] relates to Cell membrane. Briefly: Induction of outer membrane re-arragenemnts in Escherichia coli ATCC 25922 incubated for 4 mins by NPN uptake assay. The format is subcellular.
The subject of series [6] is Cell membrane. Briefly: Induction of outer membrane re-arragenemnts in Escherichia coli D21f2 incubated for 4 mins by NPN uptake assay. It is filed as subcellular.
The test system of series [7] is Cell membrane. Kind of series: Induction of cell membrane fluidity changes in Escherichia coli ATCC 25922 by Laurdan-dye based fluorescence assay. The format is subcellular.
The test system of series [8] is Escherichia coli. Briefly: Antimicrobial activity against Escherichia coli ATCC 25922 assessed as reduction in cell viability at 10 to 10000 uM by propidium iodide staining based assay. It is filed as functional, organism-based. The settings on record: dose microM 10-10000.
In series [9] the test system is Escherichia coli. Kind of series: Induction of cell lysis in Escherichia coli at 5 uM by transmission electron microscopy. It is filed as functional, organism-based.
Series [10] is described as follows: Induction of cell membrane permeability in POPE/POPG assessed as calcein leakage at 2 to 8 uM. The settings on record: dose microM 2-8.
Series [11] relates to Escherichia coli. Briefly: Induction of cell killing in Escherichia coli assessed as time needed for bacterial destruction at 128 ug/ml. The format is functional. The settings on record: dose 128 µg/ml.
For series [12], the system named is Cell membrane. Briefly: Induction of membrane permeability in Escherichia coli assessed as increase in fine surface roughness at 25 uM by atomic force microscopy. The format is subcellular.
For series [13], the system named is Escherichia coli. Kind of series: Binding affinity to outer membrane in POPE/POPG lipid layers containing LPS by SPR assay. On the technique in general: SPR reads the build-up and loss of mass on a sensor chip optically.
Series [14] has as its system Escherichia coli. Kind of series: Binding affinity to inner membrane using POPE/POPG (7/3) by SPR assay.
The subject of series [15] is Escherichia coli. Briefly: Binding affinity to cell membrane using POPC/cholesterol (8/2) by SPR assay.

As to Ac-KLLKLLKKLLKLPK-NH2, the minimum inhibitory concentration (MIC) with Escherichia coli [1] and in the series with Staphylococcus aureus was 10 µM throughout. Besides, the HC10 with Erythrocyte was determined as 40 µM.

Turning to Ac-LKKLLPLLKKLLKL-NH2, the MIC (as a rule, the smallest concentration in the dilution series that meets the test's criterion for growth inhibition) in the series on Escherichia coli [1] is 10 µM; in the series with Staphylococcus aureus, 2.5 µM. In addition, the HC10 in the series on Erythrocyte worked out at 1.25 µM.

On to COLISTIN, for which the outcome with Cell membrane [2], with Cell membrane [3], with Cell membrane [4] and in the series with Cell membrane [6] was inactive. Also, the outcome in the series with Cell membrane [5], with Cell membrane [7] and in the series on Escherichia coli [8] was Active.

Ac-KLLKLLKKLLKLLK-NH2: the figures for the minimal inhibitory concentration (MIC) in the series with Escherichia coli [1] and with Staphylococcus aureus were 20 µM and 10 µM, respectively. In the series on Erythrocyte, the HC10 was 0.625 µM.

Consider Ac-LKKLLKLLPKLLKL-NH2, for which the MIC was determined as 5 µM in the series on Escherichia coli [1] and 2.5 µM in the series on Staphylococcus aureus. Besides, the HC10 in the series with Erythrocyte is 5 µM. The outcome with Escherichia coli [9] and with Cell membrane [5] was Active. The result (in the series with Cell membrane [2]; in the series on Cell membrane [3]; in series [10]; in the series with Cell membrane [4]; with Cell membrane [6]) was inactive.

Turning to Ac-LKKLLKLPKKLLKL-NH2, the minimal inhibitory concentration (MIC) in the series on Escherichia coli [1] is 40 µM; with Staphylococcus aureus it was above 80 µM. Moreover, the HC10 in the series with Erythrocyte stood at 640 µM. In addition, the result in the series on Cell membrane [2], with Cell membrane [3], with Cell membrane [4] and in the series with Cell membrane [6] was inactive. In addition, in the series on Cell membrane [5], the outcome was Active.

Consider Ac-LKKLLKLLKPLLKL-NH2, for which the values for the MIC in the series on Escherichia coli [1] and in the series on Staphylococcus aureus were 5 µM and 2.5 µM, respectively. In the series with Erythrocyte, the HC10 was found to be 5 µM.

Turning to Ac-KLPKLLKKLLKLLK-NH2, the MIC in the series on Escherichia coli [1] and in the series with Staphylococcus aureus was 10 µM throughout. Also, the HC10 in the series with Erythrocyte turned out to be 10 µM.

With Ac-KPLKLLKKLLKLLK-NH2, the MIC with Escherichia coli [1] and with Staphylococcus aureus was 5 µM in each case. Besides, the HC10 in the series with Erythrocyte was found to be 5 µM.

With Ac-KLLKLLKPLLKLLK-NH2, the minimum inhibitory concentration (MIC) in the series with Escherichia coli [1] was found to be 10 µM; with Staphylococcus aureus, 2.5 µM. Moreover, in the series with Erythrocyte, the HC10 came to 2.5 µM.

Take Ac-LKKLPKLSKKLLKL-NH2: the minimum inhibitory concentration (MIC) amounted to 2.5 µM with Escherichia coli [1] and 10 µM in the series with Staphylococcus aureus. Also, the HC10 in the series on Erythrocyte came out at 80 µM.

On to Ac-KLLKLPKKLLKLLK-NH2, for which the values for the minimal inhibitory concentration (MIC) in the series with Escherichia coli [1] and in the series on Staphylococcus aureus were at least 80 µM and above 80 µM, respectively. For the same compound, in the series on Erythrocyte, the HC10 came to 640 µM. Moreover, the outcome with Cell membrane [2], in the series with Cell membrane [3], with Cell membrane [4] and with Cell membrane [6] was inactive. For the same compound, the outcome in the series on Cell membrane [5] was Active.

Turning to Ac-LKKLLKLLKKLLKL-NH2, the MIC with Escherichia coli [1] and in the series on Staphylococcus aureus was 10 µM throughout. In the series on Erythrocyte, the HC10 worked out at 5 µM.

Regarding H-LKKLLKLLKKPLKL-NH2, the figures for the MIC in the series with Escherichia coli [1] and in the series on Staphylococcus aureus were 20 µM and 40 µM, respectively. The HC10 in the series on Erythrocyte was 320 µM. For the same compound, the result with Cell membrane [2], with Cell membrane [3], with Cell membrane [4] and with Cell membrane [6] was inactive. Moreover, the result with Cell membrane [5] was Active.

Consider `CC[C@H](C)[C@H](NC(=O)CN)C(=O)NCC(=O)N[C@@H](C)C(=O)N[C@H](C(=O)N[C@@H](CC(C)C)C(=O)N[C@@H](CCCCN)C(=O)N[C@H](C(=O)N[C@@H](CC(C)C)C(=O)N[C@H](C(=O)N[C@H](C(=O)NCC(=O)N[C@@H](CC(C)C)C(=O)N1CCC[C@H]1C(=O)N[C@@H](C)C(=O)N[C@@H](CC(C)C)C(=O)N[C@H](C(=O)N[C@@H](CO)C(=O)N[C@@H](Cc1c[nH]c2ccccc12)C(=O)N[C@H](C(=O)N[C@@H](CCCCN)C(=O)N[C@@H](CCCNC(=N)N)C(=O)N[C@@H](CCCCN)C(=O)N[C@@H](CCCNC(=N)N)C(=O)N[C@@H](CCC(N)=O)C(=O)N[C@@H](CCC(N)=O)C(N)=O)[C@@H](C)CC)[C@@H](C)CC)[C@@H](C)O)[C@@H](C)O)C(C)C)C(C)C` [MELITTIN], for which the outcome in the series on Cell membrane [2], with Cell membrane [3], in the series on Cell membrane [4] and with Cell membrane [6] was inactive. Also, in the series on Cell membrane [5], the result was Active. Further, in the series on Escherichia coli [11], the Time worked out at 4 h.

Regarding H-KLAKLAKKPLKLAK-OH, the outcome in the series with Cell membrane [2], in the series with Cell membrane [3], with Cell membrane [4], in the series on Cell membrane [6] and in the series on Cell membrane [12] was inactive. For the same compound, the result with Cell membrane [5] was Active.

For Ac-KLLKLLPKLLKLLK-NH2, the figures for the minimum inhibitory concentration (MIC) in the series on Escherichia coli [1] and in the series with Staphylococcus aureus were 10 µM and 5 µM, respectively. Besides, the HC10 in the series with Erythrocyte turned out to be 5 µM.

Take Ac-KLLKPLKKLLKLLK-NH2: the minimal inhibitory concentration (MIC) with Escherichia coli [1] and in the series on Staphylococcus aureus was 20 µM throughout. Moreover, the HC10 in the series on Erythrocyte was 80 µM.

For the compound Ac-LKKLLKPLKKLLKL-NH2, the MIC in the series with Escherichia coli [1] and in the series on Staphylococcus aureus was 20 µM in each case. Also, the HC10 with Erythrocyte turned out to be 160 µM.

As for Ac-KLLKLLKKLLKPLK-NH2, the minimal inhibitory concentration (MIC) in the series on Escherichia coli [1] is 20 µM; in the series on Staphylococcus aureus, 10 µM. Further, the HC10 in the series with Erythrocyte is 40 µM.

With Ac-LKKPLKLGKKLLKL-NH2, the MIC with Escherichia coli [1] was 5 µM; in the series with Staphylococcus aureus it was 40 µM. Further, in the series with Erythrocyte, the HC10 is 160 µM.

In the case of Ac-LKKLLKLLKKLPKL-NH2, the values for the minimal inhibitory concentration (MIC) with Escherichia coli [1] and with Staphylococcus aureus were 5 µM and 10 µM, respectively. In the series with Erythrocyte, the HC10 was 40 µM. Also, the outcome in the series with Escherichia coli [9], in the series with Cell membrane [5] and in the series with Escherichia coli [14] was Active. Besides, the outcome (with Cell membrane [2]; with Cell membrane [3]; in series [10]; with Cell membrane [4]; in the series with Cell membrane [6]; in the series with Escherichia coli [13]) was inactive. Besides, in the series on Escherichia coli [15], the outcome was inactive.

As for Ac-KLLKLLKKLPKLLK-NH2, the MIC in the series with Escherichia coli [1] and in the series on Staphylococcus aureus was 40 µM throughout. For the same compound, the HC10 in the series with Erythrocyte is 80 µM.

The values above are taken from ChEMBL document CHEMBL4699652, “Proline Hinged Amphipathic α-Helical Peptide Sensitizes Gram-Negative Bacteria to Various Gram-Positive Antibiotics” (J Med Chem, 2020).
